Values belong to the compound of their own block, whether it stands above or below them.
Assay: solvent given as SMILES
[1] = in CCCCCCCCC=CCCCCCCCC(=O)OCC(COC(=O)CCCCCCCC=CCCCCCCCC)OC(=O)CCCCCCCC=CCCCCCCCC

SMILES: C=CC
solvation free energy, 298 K (in C1CCC2CCCCC2C1): -1.43 kcal/mol
solvation free energy, 298 K (in C1COCCO1): -1.36 kcal/mol
solvation free energy, 298 K (in CC1COC(=O)O1): -0.97 kcal/mol
solvation free energy, 298 K (in CC(C)(C)O): -1.35 kcal/mol
solvation free energy, 298 K (in CC(C)CC(C)(C)C): -1.61 kcal/mol
solvation free energy, 298 K (in CC(C)CCO): -1.31 kcal/mol
solvation free energy, 298 K (in CC(C)CO): -1.3 kcal/mol
solvation free energy, 298 K (in CC(C)O): -1.32 kcal/mol
solvation free energy, 298 K (in CCC(C)(C)O): -1.39 kcal/mol
solvation free energy, 298 K (in CCC(C)=O): -1.54 kcal/mol
solvation free energy, 298 K (in CCC(C)CO): -1.3 kcal/mol
solvation free energy, 298 K (in CCC(C)O): -1.32 kcal/mol
solvation free energy, 298 K (in CCC(O)CC): -1.31 kcal/mol
solvation free energy, 298 K (in CCCC(C)O): -1.31 kcal/mol
solvation free energy, 298 K (in CCCCC): -1.79 kcal/mol
solvation free energy, 298 K (in CCCCCC): -1.75 kcal/mol
solvation free energy, 298 K (in CCCCCCC): -1.74 kcal/mol
solvation free energy, 298 K (in CCCCCCCC): -1.71 kcal/mol
solvation free energy, 298 K (in CCCCCCCCC): -1.7 kcal/mol
solvation free energy, 298 K (in CCCCCCCCCC): -1.68 kcal/mol
solvation free energy, 298 K (in CCCCCCCCCCCCCCCC): -1.32 kcal/mol
solvation free energy, 298 K (in CCCCCCCCO): -1.25 kcal/mol
solvation free energy, 298 K (in CCCCCO): -1.32 kcal/mol
solvation free energy, 298 K (in CCCCO): -1.41 kcal/mol
solvation free energy, 298 K (in CCCO): -1.35 kcal/mol
solvation free energy, 298 K (in CCOC(C)=O): -1.51 kcal/mol
solvation free energy, 298 K (in CN1CCCC1=O): -1.24 kcal/mol
solvation free energy, 298 K (in CN(C)C=O): -1.3 kcal/mol
solvation free energy, 298 K (in CN(C)P(=O)(N(C)C)N(C)C): -1.39 kcal/mol
solvation free energy, 298 K (in CO): -1.3 kcal/mol
solvation free energy, 298 K (in COCCOCCOCCOC): -1.06 kcal/mol
solvation free energy, 298 K (in CS(C)=O): -0.78 kcal/mol
solvation free energy, 298 K (in Cc1ccc(C)cc1): -1.58 kcal/mol
solvation free energy, 298 K (in Cc1cccc(C)c1): -1.58 kcal/mol
solvation free energy, 298 K (in Cc1ccccc1C): -1.56 kcal/mol
solvation free energy, 298 K (in ClC(Cl)(Cl)Cl): -1.84 kcal/mol
solvation free energy, 298 K (in Nc1ccccc1): -1.08 kcal/mol
solvation free energy, 298 K (in O): 1.22 kcal/mol
solvation free energy, 298 K (in OCCCOCCCO): -0.76 kcal/mol
solvation free energy, 298 K (in OCCO): -0.45 kcal/mol
solvation free energy, 298 K (in OCc1ccccc1): -1.09 kcal/mol
solvation free energy, 298 K (in c1ccccc1): -1.64 kcal/mol

SMILES: C#CCCCCC
solvation free energy, 298 K (in C1CCC2CCCCC2C1): -4.37 kcal/mol
solvation free energy, 298 K (in C1CCC(C2CCCCC2)CC1): -4.33 kcal/mol
solvation free energy, 298 K (in CN(C)C=O): -4.37 kcal/mol
solvation free energy, 298 K (in CS(C)=O): -3.95 kcal/mol
solvation free energy, 298 K (in N#CCCCCC#N): -3.83 kcal/mol
solvation free energy, 298 K (in NCCO): -2.8 kcal/mol
solvation free energy, 298 K (in O): 0.59 kcal/mol
solvation free energy, 298 K (in O=Cc1ccco1): -4.12 kcal/mol
solvation free energy, 298 K (in OCc1ccco1): -3.93 kcal/mol
solvation free energy, 298 K (in c1ccc2c(c1)CCCC2): -4.66 kcal/mol
solvation free energy, 298 K (in c1ccc(C2CCCCC2)cc1): -4.56 kcal/mol

solvation free energy, 298 K (in O): -3.93 kcal/mol
SMILES: Cc1ccccc1C=O

solvation free energy, 298 K (in O): -6.07 kcal/mol
SMILES: Cc1ccc(CN)cc1

SMILES: Oc1ccccc1
solvation free energy, 298 K (in CC(C)CC(C)(C)C): -5.23 kcal/mol
solvation free energy, 298 K (in CCCCCCC): -4.97 kcal/mol
solvation free energy, 298 K (in CCCCCCCCCC): -5.49 kcal/mol
solvation free energy, 298 K (in Cc1ccc(C)cc1): -6.77 kcal/mol
solvation free energy, 298 K (in Cc1cccc(C)c1): -6.78 kcal/mol
solvation free energy, 298 K (in Cc1ccccc1C): -6.84 kcal/mol
solvation free energy, 298 K (in O): -6.62 kcal/mol

SMILES: Cc1cc(Cl)c(Cl)cc1Cl
solvation free energy, 298 K [1]: -7.99 kcal/mol
solvation free energy, 298 K (in O): -1.05 kcal/mol

solvation free energy, 298 K (in O): -0.5 kcal/mol
SMILES: C=CC(=C)CCC=C(C)C

SMILES: C1CO1
solvation free energy, 298 K (in O): -2.87 kcal/mol

solvation free energy, 298 K (in O): -7.98 kcal/mol
SMILES: CN1CCCC1c1cccnc1 (configuration not stated)

solvation free energy, 298 K (in O): -6.34 kcal/mol
SMILES: NCc1ccccc1

solvation free energy, 298 K (in O): -11 kcal/mol
SMILES: COc1ccc(C(=O)N(C)C)cc1

SMILES: C1CCOCC1
solvation free energy, 298 K (in C1COCCO1): -4.53 kcal/mol
solvation free energy, 298 K (in CC(C)CCl): -4.65 kcal/mol
solvation free energy, 298 K (in CCC(C)Cl): -4.65 kcal/mol
solvation free energy, 298 K (in CCCCCCCCCCCCCCCC): -3.89 kcal/mol
solvation free energy, 298 K (in CCCCCCCCO): -4.34 kcal/mol
solvation free energy, 298 K (in CCCCCl): -4.71 kcal/mol
solvation free energy, 298 K (in O): -3.12 kcal/mol
solvation free energy, 298 K (in [2H]O[2H]): -3.08 kcal/mol

SMILES: Cc1ccc(C)c(O)c1
solvation free energy, 298 K (in CCCCCC): -6.46 kcal/mol
solvation free energy, 298 K (in CCCCCCC): -6.44 kcal/mol
solvation free energy, 298 K (in CCCCCCCC): -6.44 kcal/mol
solvation free energy, 298 K (in Cc1ccc(C)cc1): -7.72 kcal/mol
solvation free energy, 298 K (in Cc1cccc(C)c1): -7.76 kcal/mol
solvation free energy, 298 K (in Cc1ccccc1C): -7.8 kcal/mol
solvation free energy, 298 K (in O): -5.92 kcal/mol

solvation free energy, 298 K (in O): -0.55 kcal/mol
SMILES: CC=C(C)C=CC=C(C)C

SMILES: OC(Cl)CCCl (configuration not stated)
solvation free energy, 298 K (in CCCCCCCCCCO): -7 kcal/mol

SMILES: Clc1cccc(Cl)c1Cl
solvation free energy, 298 K (in CCCCCC): -6.92 kcal/mol
solvation free energy, 298 K [1]: -7.12 kcal/mol
solvation free energy, 298 K (in CCCCCCCCO): -7.08 kcal/mol
solvation free energy, 298 K (in O): -1.24 kcal/mol

solvation free energy, 298 K (in NC=O): -5.43 kcal/mol
solvation free energy, 298 K (in O): -2.5 kcal/mol
SMILES: CCCCCCCC(C)=O

SMILES: Cc1ccc([N+](=O)[O-])cc1
solvation free energy, 298 K (in O): -4.96 kcal/mol

SMILES: CCCCl
solvation free energy, 298 K (in Brc1cccc2ccccc12): -3.29 kcal/mol
solvation free energy, 298 K (in C1CCOC1): -3.88 kcal/mol
solvation free energy, 298 K (in C1CCOCC1): -3.79 kcal/mol
solvation free energy, 298 K (in C=CCCCCCCCCCCCCCC): -3.01 kcal/mol
solvation free energy, 298 K (in CC(=O)OCc1ccccc1): -3.4 kcal/mol
solvation free energy, 298 K (in CC(C)CC(C)(C)C): -3.2 kcal/mol
solvation free energy, 298 K (in CCC(C)=O): -3.68 kcal/mol
solvation free energy, 298 K (in CCCCCC): -3.37 kcal/mol
solvation free energy, 298 K (in CCCCCCC): -3.27 kcal/mol
solvation free energy, 298 K (in CCCCCCCC): -3.22 kcal/mol
solvation free energy, 298 K [1]: -3.25 kcal/mol
solvation free energy, 298 K (in CCCCCCCCCCCCCCCC): -3.01 kcal/mol
solvation free energy, 298 K (in CCCCCCCCO): -3.06 kcal/mol
solvation free energy, 298 K (in CCCCCl): -3.68 kcal/mol
solvation free energy, 298 K (in CCCCO): -3.16 kcal/mol
solvation free energy, 298 K (in CCOC(C)=O): -3.68 kcal/mol
solvation free energy, 298 K (in Cc1ccc(C)cc1): -3.58 kcal/mol
solvation free energy, 298 K (in ClC(Cl)(Cl)Cl): -3.7 kcal/mol
solvation free energy, 298 K (in ClC(Cl)Cl): -3.62 kcal/mol
solvation free energy, 298 K (in ClCCCl): -3.7 kcal/mol
solvation free energy, 298 K (in O): -0.37 kcal/mol
solvation free energy, 298 K (in O=C1CCCCC1): -3.67 kcal/mol
solvation free energy, 298 K (in [2H]O[2H]): -0.74 kcal/mol
solvation free energy, 298 K (in c1ccc2ncccc2c1): -3.35 kcal/mol

SMILES: Cc1ccccc1O
solvation free energy, 298 K (in CC(C)CC(C)(C)C): -5.68 kcal/mol
solvation free energy, 298 K (in O): -5.85 kcal/mol

solvation free energy, 298 K (in O): -11.3 kcal/mol
SMILES: O=C(c1ccccc1)N(O)c1ccccc1

solvation free energy, 298 K (in CCCCCCCCCCO): -10.3 kcal/mol
SMILES: CCCCCCCCCCCO

solvation free energy, 298 K (in C=CCCCCCCC=C): -4.98 kcal/mol
solvation free energy, 298 K (in C=CCCCCCCCCCCCCCC): -4.26 kcal/mol
SMILES: CC(N)=O

SMILES: CCCCN(CC)C(=O)SCCC
solvation free energy, 298 K (in O): -3.64 kcal/mol

solvation free energy, 298 K (in O): -6.09 kcal/mol
SMILES: CC(C)CC(=O)O

solvation free energy, 298 K (in O): -6.26 kcal/mol
SMILES: c1ccc2cc3c(ccc4ccccc43)cc2c1

SMILES: CC(C)OC(=O)c1ccccc1C(=O)OC(C)C
solvation free energy, 298 K (in O): -7.42 kcal/mol
